Measured values reported in PubChem BioAssay AID1963966 (Molecular Pharmacology Branch, DTP, NCI, 2024).
pIC50: −log10 of the molar value.

Test system: 935938-334-R-J1-PDC spheroids with HUVEC/MSC, viability
Experiment: Anticancer human tumor 935938-334-R-J1-PDC patient-derived small intestine adenocarcinoma cell line growth inhibition [PI3K]
Details: for pIC50: curve of first compound; for viability, T/C: stronger effect = lower value
How it was run: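 Targeted small molecules plus PI3K inhibitors, half-log dose series from Cmax (default top 10 microM), were applied to heterotypic spheroids of cancer cells with HUVEC and MSCs. Viability indicated growth inhibition.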

[1] = second compound 0.0316 µM, first compound 0.0316 µM
[2] = second compound 0.0316 µM, first compound 0.1 µM
[3] = second compound 0.0316 µM, first compound 0.316 µM
[4] = second compound 0.0316 µM, first compound 1 µM
[5] = second compound 0.0316 µM, first compound 3.16 µM
[6] = second compound 0.0316 µM, first compound 10 µM
[7] = second compound 0.1 µM, first compound 0.0316 µM
[8] = second compound 0.1 µM, first compound 0.1 µM
[9] = second compound 0.1 µM, first compound 0.316 µM
[10] = second compound 0.1 µM, first compound 1 µM
[11] = second compound 0.1 µM, first compound 3.16 µM
[12] = second compound 0.1 µM, first compound 10 µM
[13] = second compound 0.316 µM, first compound 0.0316 µM
[14] = second compound 0.316 µM, first compound 0.1 µM
[15] = second compound 0.316 µM, first compound 0.316 µM
[16] = second compound 0.316 µM, first compound 1 µM
[17] = second compound 0.316 µM, first compound 3.16 µM
[18] = second compound 0.316 µM, first compound 10 µM
[19] = second compound 1 µM, first compound 0.0316 µM
[20] = second compound 1 µM, first compound 0.1 µM
[21] = second compound 1 µM, first compound 0.316 µM
[22] = second compound 1 µM, first compound 1 µM
[23] = second compound 1 µM, first compound 3.16 µM
[24] = second compound 1 µM, first compound 10 µM
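Further: compound exposure lasted seven days before viability was read.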
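Wherever viability, T/C is given: percent of vehicle DMSO treated spheroid viability so 100% = untreated.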

Compound: CCCS(=O)(=O)Nc1ccc(F)c(C(=O)c2c[nH]c3ncc(-c4ccc(Cl)cc4)cc23)c1F + COc1c(OCCCN2CCOCC2)ccc2c3n(c(=NC(=O)c4cnc(N)nc4)nc12)CCN3
- pIC50 (second compound 0.00316 µM): 5.13
- pIC50 (second compound 0.01 µM): 5.13
- pIC50 (second compound 0.0316 µM): 5.17
- pIC50 (second compound 0.1 µM): 5.27
- pIC50 (second compound 0.316 µM): > 7.50
- pIC50 (second compound 1 µM): > 7.50
- viability, T/C (second compound 0.00316 µM, first compound 0.0316 µM): 97.3%
- viability, T/C (second compound 0.00316 µM, first compound 0.1 µM): 104%
- viability, T/C (second compound 0.00316 µM, first compound 0.316 µM): 113%
- viability, T/C (second compound 0.00316 µM, first compound 1 µM): 132%
- viability, T/C (second compound 0.00316 µM, first compound 3.16 µM): 102%
- viability, T/C (second compound 0.00316 µM, first compound 10 µM): 31.2%
- viability, T/C (second compound 0.01 µM, first compound 0.0316 µM): 123%
- viability, T/C (second compound 0.01 µM, first compound 0.1 µM): 107%
- viability, T/C (second compound 0.01 µM, first compound 0.316 µM): 96.1%
- viability, T/C (second compound 0.01 µM, first compound 1 µM): 120%
- viability, T/C (second compound 0.01 µM, first compound 3.16 µM): 115%
- viability, T/C (second compound 0.01 µM, first compound 10 µM): 28.1%
- viability, T/C [1]: 95%
- viability, T/C [2]: 81.4%
- viability, T/C [3]: 85%
- viability, T/C [4]: 108%
- viability, T/C [5]: 87.9%
- viability, T/C [6]: 29.5%
- viability, T/C [7]: 61.8%
- viability, T/C [8]: 65.5%
- viability, T/C [9]: 65.3%
- viability, T/C [10]: 89.1%
- viability, T/C [11]: 70.6%
- viability, T/C [12]: 26.7%
- viability, T/C [13]: 39%
- viability, T/C [14]: 45.2%
- viability, T/C [15]: 51.6%
- viability, T/C [16]: 49.3%
- viability, T/C [17]: 49.5%
- viability, T/C [18]: 31.9%
- viability, T/C [19]: 39.2%
- viability, T/C [20]: 40.9%
- viability, T/C [21]: 39.3%
- viability, T/C [22]: 50%
- viability, T/C [23]: 50.3%
- viability, T/C [24]: 23.9%

Compound: CC1(C)CCC(CN2CCN(c3ccc(C(=O)NS(=O)(=O)c4ccc(NCC5CCOCC5)c([N+](=O)[O-])c4)c(Oc4cnc5[nH]ccc5c4)c3)CC2)=C(c2ccc(Cl)cc2)C1
- viability, T/C (compound 0.0316 µM): 98.9% [middle of 4 runs]
- viability, T/C (compound 0.1 µM): 88.2% [middle of 4 runs]
- viability, T/C (compound 3.16 µM): 93.3% [middle of 4 runs]

Compound: CCCS(=O)(=O)Nc1ccc(F)c(C(=O)c2c[nH]c3ncc(-c4ccc(Cl)cc4)cc23)c1F + Cc1nc(NC(=O)N2CCCC2C(N)=O)sc1-c1ccnc(C(C)(C)C(F)(F)F)c1
- pIC50 (second compound 0.0316 µM): 5.20
- pIC50 (second compound 0.1 µM): 5.19
- pIC50 (second compound 0.316 µM): 5.25
- pIC50 (second compound 1 µM): 5.26
- pIC50 (second compound 3.16 µM): 5.34
- pIC50 (second compound 10 µM): 7.50
- viability, T/C [1]: 85.6%
- viability, T/C [2]: 113%
- viability, T/C [3]: 98.5%
- viability, T/C [4]: 97.6%
- viability, T/C [5]: 94.1%
- viability, T/C [6]: 21.5%
- viability, T/C [7]: 90.2%
- viability, T/C [8]: 75.4%
- viability, T/C [9]: 105%
- viability, T/C [10]: 112%
- viability, T/C [11]: 98.2%
- viability, T/C [12]: 22.3%
- viability, T/C [13]: 82%
- viability, T/C [14]: 110%
- viability, T/C [15]: 88.9%
- viability, T/C [16]: 95.5%
- viability, T/C [17]: 81.2%
- viability, T/C [18]: 17.6%
- viability, T/C [19]: 75.3%
- viability, T/C [20]: 85%
- viability, T/C [21]: 88%
- viability, T/C [22]: 74.1%
- viability, T/C [23]: 77.1%
- viability, T/C [24]: 21.2%
- viability, T/C (second compound 3.16 µM, first compound 0.0316 µM): 63.1%
- viability, T/C (second compound 3.16 µM, first compound 0.1 µM): 52.7%
- viability, T/C (second compound 3.16 µM, first compound 0.316 µM): 69%
- viability, T/C (second compound 3.16 µM, first compound 1 µM): 65.5%
- viability, T/C (second compound 3.16 µM, first compound 3.16 µM): 67.5%
- viability, T/C (second compound 3.16 µM, first compound 10 µM): 22.1%
- viability, T/C (second compound 10 µM, first compound 0.0316 µM): 36.9%
- viability, T/C (second compound 10 µM, first compound 0.1 µM): 47.2%
- viability, T/C (second compound 10 µM, first compound 0.316 µM): 54.2%
- viability, T/C (second compound 10 µM, first compound 1 µM): 51.7%
- viability, T/C (second compound 10 µM, first compound 3.16 µM): 54.4%
- viability, T/C (second compound 10 µM, first compound 10 µM): 18.2%
